pKd: −log10 of the molar value.
What was measured:
GAVE17 [1] = target: T1, GAVE17 (Homo sapiens, UniProt Q9BPV8); assay: Agonist assay utilizing FLIPR, NIH 3T3 cell line transfected with hGAVE17 (Ca2+ fluorescence); type: cell-based; set-up: host or cells: Gα16-coupled NIH 3T3; details: NIH313 cell line transfected with PEAK8 expression vector comprising SEQ ID NO:1; FIGS. 3a-d
T1 sequence (Q9BPV8 1-333 isoform Q9BPV8-2): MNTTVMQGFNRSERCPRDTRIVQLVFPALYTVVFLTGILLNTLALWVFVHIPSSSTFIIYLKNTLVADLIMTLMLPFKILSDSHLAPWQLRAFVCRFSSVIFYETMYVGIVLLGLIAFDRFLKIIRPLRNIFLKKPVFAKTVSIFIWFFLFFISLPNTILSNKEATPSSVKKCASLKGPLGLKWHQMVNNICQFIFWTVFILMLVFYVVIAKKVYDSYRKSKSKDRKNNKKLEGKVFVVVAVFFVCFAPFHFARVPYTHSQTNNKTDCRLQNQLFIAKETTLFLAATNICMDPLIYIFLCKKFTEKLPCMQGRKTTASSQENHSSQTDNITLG
From the text: To screen for agonists of human GAVE17, hGAVE17 is coupled artificially to a Gq mechanism. Activation of the Gq mechanism stimulates the release of Ca^2+ from sarcoplasmic reticulum vesicles within the cell. The Ca^2+ is released into the cytoplasm where it can be detected using Ca^2+ chelating dyes. A Fluorometric Imaging Plate Reader or FLIPR® apparatus (Molecular Devices) is used to monitor any resulting changes in fluorescence. The activity of an agonist is reflected by an increase in fluorescence.
In a particular example, NIH 3T3 cells expressing hGAVE17 are pre-engineered to express an indiscriminate form of Gq protein (Gα16). To prepare such cells, Gα16-coupled NIH 3T3 cells are obtained commercially (Molecular Devices LIVEWARE™ cells, Catalog No. RD-HGA16) and the protocol in Example 2 followed to facilitate expression of hGAVE17 in those cells.
The cells are maintained in log phase of growth at 37° C. and 5% CO2 in F12 Ham's media (Gibco/BRL, Catalog No. 11765-054) containing 10% fetal bovine serum, 100 lU/ml penicillin (Gibco/BRL, Catalog No. 15140-148), 100 μg/ml streptomycin (Catalog No. 15140-148, Gibco/BRL), 400 μg/ml genetecin (G418) (Gibco/BRL, Catalog No. 10131-035) and 200 μg/ml zeocin (Invitrogen, Catalog No. R250-05). One day prior to an assay, 12,500 cells/well of the NIH 3T3 cells are plated onto 384-well clear-bottomed assay plates with a well volume of 50 μl (Greiner/Marsh, Catalog No. N58102) using a 96/384 Multidrop device (Labsystems, Type 832). The cells are incubated at 37° C. in a humidified 5% CO2 incubator (Forma Scientific CO2 water-jacketed incubator Model 3110).
The following stock solutions are prepared: a 1 M stock solution of Hepes (pH 7.5) (Gibco/BRL, Catalog No. 15630-080); a 250 mM stock solution of probenicid (Sigma, Catalog No. P8761) made in 1 N NaOH; and a 1 mM stock solution of Fluo 4-AM Dye (Molecular Probes, Catalog No. F1 4202) made in DMSO (Sigma D2650). Reaction buffer is prepared with 1000 ml Hank's balanced salt solution (Fisher/Mediatech, Catalog No. MT21023), 20 ml of the 1 M Hepes stock solution and 10 ml of the 250 mM probenicid stock solution. […]
A compound library containing possible agonists such as various purine derivatives or purine mimetics is tested at a concentration of 10 μM in physiological salt buffer. Changes in fluorescence are measured for 10 seconds prior to compound addition. After the addition of the compound, fluorescence is measured every second for the first minute followed by exposures taken every six seconds for a total experimental analysis time of three minutes. […]

GAVE17 [2] = target: T1, GAVE17; assay: Nucleotide ligand activation of and affinity for GAVE17 in transformed NIH 3T3 cells; type: cell-based; set-up: expressed in transfected cells; host or cells: NIH 3T3; details: for pKd: transformed NIH 3T3 cells

Nc1ncnc2c1ncn2[C@@H]1O[C@H](COP(=O)(O)OP(=O)(O)O)[C@@H](O)[C@H]1O [ADP]
agonist activity (FLIPR units vs log molar concentration) (GAVE17 [1]): agonist activity
activation of GAVE17 (GAVE17 [2]): activate
pKd (GAVE17 [2]): 4.59

Nc1ncnc2c1ncn2[C@@H]1O[C@H](COP(=O)(O)OP(=O)(O)OP(=O)(O)O)[C@@H](O)[C@H]1O [ATP]
agonist activity (FLIPR units vs log molar concentration) (GAVE17 [1]): agonist activity
activation of GAVE17 (GAVE17 [2]): activate
pKd (GAVE17 [2]): 6.10

Nc1nc2c(ncn2[C@@H]2O[C@H](COP(=O)(O)OP(=O)(O)O)[C@@H](O)[C@H]2O)c(=O)[nH]1 [GDP]
activation of GAVE17 (GAVE17 [2]): activate
pKd (GAVE17 [2]): 4.19

O=c1ccn([C@@H]2O[C@H](COP(=O)(O)OP(=O)(O)O)[C@@H](O)[C@H]2O)c(=O)[nH]1 [UDP]
agonist activity (FLIPR units vs log molar concentration) (GAVE17 [1]): agonist activity
activation of GAVE17 (GAVE17 [2]): activate
pKd (GAVE17 [2]): 5.00

O=c1ccn([C@@H]2O[C@H](COP(=O)(O)OP(=O)(O)OP(=O)(O)O)[C@@H](O)[C@H]2O)c(=O)[nH]1 [UTP]
agonist activity (FLIPR units vs log molar concentration) (GAVE17 [1]): agonist activity
activation of GAVE17 (GAVE17 [2]): activate
pKd (GAVE17 [2]): 5.16
